# Key:
# human P2X2/3 receptor = target: T1, human P2X2/3 receptor (Homo sapiens, UniProt P56373+Q9UBL9); experiment: P2X2/3 FLIPR (Fluorometric Imaging Plate Reader) assay; assay type: cell-based; settings: transfected CHO-K1 cells; agonist α,β-meATP 5 μM; Fluo-3 calcium fluorescence; read-out: pKi for the P2X2/3 receptor (converted)
# T1 construct: expressed in transfected cells; host or cells: CHO-K1
# T1 sequence (Q9UBL9 1-471): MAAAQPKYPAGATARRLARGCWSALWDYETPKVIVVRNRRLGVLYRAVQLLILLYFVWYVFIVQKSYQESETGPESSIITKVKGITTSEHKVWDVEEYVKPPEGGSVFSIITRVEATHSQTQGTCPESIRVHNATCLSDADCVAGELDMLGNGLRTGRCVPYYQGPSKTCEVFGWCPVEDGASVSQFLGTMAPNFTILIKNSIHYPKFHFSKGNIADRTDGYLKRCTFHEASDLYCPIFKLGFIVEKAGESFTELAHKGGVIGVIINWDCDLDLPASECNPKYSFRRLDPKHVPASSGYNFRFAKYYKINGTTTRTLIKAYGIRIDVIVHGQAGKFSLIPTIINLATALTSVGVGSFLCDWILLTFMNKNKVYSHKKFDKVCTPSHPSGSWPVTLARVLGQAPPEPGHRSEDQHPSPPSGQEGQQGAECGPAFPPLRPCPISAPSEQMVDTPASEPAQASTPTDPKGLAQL
# T1 sequence (P56373 1-397): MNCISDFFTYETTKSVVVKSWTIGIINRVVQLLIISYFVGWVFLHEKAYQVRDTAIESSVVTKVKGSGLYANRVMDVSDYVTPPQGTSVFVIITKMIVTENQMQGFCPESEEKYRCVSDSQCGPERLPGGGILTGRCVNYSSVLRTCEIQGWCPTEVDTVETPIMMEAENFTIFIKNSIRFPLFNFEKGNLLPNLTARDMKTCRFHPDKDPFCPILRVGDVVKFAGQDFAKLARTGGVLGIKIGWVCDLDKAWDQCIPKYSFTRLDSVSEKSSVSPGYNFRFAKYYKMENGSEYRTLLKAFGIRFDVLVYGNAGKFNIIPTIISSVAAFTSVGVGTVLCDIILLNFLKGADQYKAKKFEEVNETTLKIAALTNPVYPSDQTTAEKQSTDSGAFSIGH
# Procedure: (§1) CHO-K1 cells were transfected with cloned rat P2X3 or human P2X2/3 receptor subunits and passaged in flasks. 18-24 hours before the FLIPR experiment, cells were released from their flasks, centrifuged, and resuspended in nutrient medium at 2.5×10^5 cells/ml. The cells were aliquoted into black-walled 96-well plates at a density of 50,000 cells/well and incubated overnight in 5% CO2 at 37° C. On the day of the experiment, cells were washed in FLIPR buffer (calcium- and magnesium-free Hank's balanced salt solution, 10 mM HEPES, 2 mM CaCl2, 2.5 mM probenecid; FB). Each well received 100 μl FB and 100 μl of the fluorescent dye Fluo-3 AM [2 μM final conc.]. […]
# (§2) Test compounds (dissolved in DMSO at 10 mM and serially diluted with FB) or vehicle were added to each well (25 μl of a 4× solution) and allowed to equilibrate for 20 minutes at room temperature. The plates were then placed in the FLIPR and a baseline fluorescence measurement (excitation at 488 nm and emission at 510-570 nm) was obtained for 10 seconds before a 100 μl/well agonist or vehicle addition. […] Fluorescence was measured for an additional 2 minutes at 1 second intervals after agonist addition. A final addition of ionomycin (5 μM, final concentration) was made to each well of the FLIPR test plate to establish cell viability and maximum fluorescence of dye-bound cytosolic calcium. […]
# rat P2X3 receptor = target: T2, rat P2X3 receptor (Rattus norvegicus, UniProt P49654); experiment: P2X3 FLIPR (Fluorometric Imaging Plate Reader) assay; assay type: cell-based; settings: transfected CHO-K1 cells; agonist α,β-meATP 1 μM; Fluo-3 calcium fluorescence; read-out: pIC50 for the P2X3 receptor (converted)
# T2 construct: expressed in transfected cells; host or cells: CHO-K1
# T2 sequence (P49654 1-397): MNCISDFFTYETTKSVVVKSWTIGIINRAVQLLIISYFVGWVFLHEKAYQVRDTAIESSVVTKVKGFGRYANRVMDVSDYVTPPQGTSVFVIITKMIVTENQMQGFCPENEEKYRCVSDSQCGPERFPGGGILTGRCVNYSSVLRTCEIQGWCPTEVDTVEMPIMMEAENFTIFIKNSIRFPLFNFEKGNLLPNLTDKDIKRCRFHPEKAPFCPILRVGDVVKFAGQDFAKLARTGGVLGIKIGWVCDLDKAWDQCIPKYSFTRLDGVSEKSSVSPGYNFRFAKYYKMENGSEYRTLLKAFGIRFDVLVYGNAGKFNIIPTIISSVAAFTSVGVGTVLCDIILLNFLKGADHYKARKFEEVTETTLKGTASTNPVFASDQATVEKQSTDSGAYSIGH
# Procedure: as §1, §2
Ki (human P2X2/3 receptor) [nM],IC50 (rat P2X3 receptor) [nM],Structure (SMILES)
~46.8,,"Cc1ccc(-c2cc(C(=O)NC(C)c3cnccn3)cc(-n3ccnc3C(C)C)c2)cc1 (centres unmarked) [Compound 27, 5-(2-Isopropyl-imidazol-1-yl)-4′-methyl-biphenyl-3-carboxylic acid (1-pyrazin-2-yl-ethyl)-amide]"
,~2.82,"CCc1nccn1-c1cc(C(=O)NCc2cnc(C)cn2)cc(-c2ccc(C)cn2)c1 [Compound 29, 3-(2-Ethyl-imidazol-1-yl)-N-(5-methyl-pyrazrn-2-ylmethyl)-5-(5-methyl-pyridin-2-yl)-benzamide]"

# Reference: patent publication US7858654B2, “Imidazole-substituted arylamides as P2X3 and P2X2/3 antagonists” (Roche Palo Alto LLC, priority 2007, dated 2010)
